Results as given in US20220110916A1, “Antioxidant and Use Thereof” (Bioradical Research Institute Corp., priority 2019, published 2022).

What was measured:
[1] = Water solubility noted at synthesis; format: physicochemical; details: crystal obtained in Example 1
Description: 3.58 g of 3-methyl-1-phenyl-5-pyrazolone (hereinafter, also referred to as “edaravone”), 2.59 g of malonaldehyde dianilide hydrochloride, and 20 ml of ethanol were added to a reactor and dissolved. To the obtained solution, 2.04 g of triethylamine and 0.4 ml of water were added and stirred for 1 hour at room temperature (about 25° C., hereinafter, the same applies). After the stirring, the resultant was further reacted for 1 hour at 50° C. After discharging the obtained reaction solution to 100 ml of 1N hydrochloric acid, the mixture was sufficiently stirred and the precipitate was filtered. The resulting cake was washed with water. The cake was added to 200 ml of an aqueous sodium hydroxide solution having a 1% by weight concentration and completely dissolved by heating with stirring. Next, the dissolved solution was stirred for 3 hours after cooling to room temperature. Then, the liquid containing the obtained precipitate was filtered, and then the cake was washed with water. […] Note that the melting point of ED2AP was 249° C., which was water-soluble.
3 ml of dimethylformamide was added to a reactor and the exterior of the reactor was cooled with ice water. 1.75 g of phosphorus oxychloride was slowly dropped into the reactor (Reaction Solution A). In another reactor, 1.78 g of edaravone was dissolved in 5 ml of dimethylformamide (Reaction Solution B). Under room temperature, the reaction solution B was slowly added to the reaction solution A, and the resulting mixture was allowed to react for 1 hour with the end of addition (Reaction Solution C) being a reference. In another reactor, 1.81 g of 3-methyl-1-phenyl-5-pyrazolone was added to 8 ml of chloroform and dissolved (Reaction Solution D). Under room temperature, the reaction solution C was slowly added to the reaction solution D, followed by stirring for 20 minutes and further stirring at 70° C. for 1 hour. To the resultant, 0.2 g of water was added and stirred for another 2 hours. The obtained reaction solution was discharged into 100 ml of water and extracted with a mixed solvent of toluene/ethyl acetate=1/1 (volume ratio). After condensation of the obtained extract, column purification was performed to obtain 2.92 g of yellow crystal of the compound of the formula (10) having the following physical properties.
1.00 g of edaravone, 0.72 g of paraformaldehyde, and 20 ml of formic acid were added to a reaction flask and stirred overnight for 20 hours at 70° C. The obtained reaction solution was discharged into 80 ml of water and extracted with a mixed solvent of toluene/ethyl acetate=1/1 (volume ratio). When the extract was condensed to about two-thirds, crystals were precipitated. Further, the resultant was cooled to room temperature, and sufficiently crystallized, and then filtered. The obtained cake was washed with toluene to obtain 0.88 g of pale yellow crystal of the compound of the formula (14) having the following physical properties.
In Example 1(1), synthesis was performed in the same manner as described above except that 3-methyl-1-ethyl-5-pyrazolone was used instead of edaravone to obtain red crystal of BisEp-C3 having the following physical properties. Note that BisEp-C3 was water-soluble.
In Example 1(2), synthesis was performed in the same manner as described above except that 3-methyl-1-ethyl-5-pyrazolone was used instead of edaravone to obtain yellow crystal of BisEp-C1 having the following physical properties. Note that BisEp-C1 was water-soluble.
In Example 1(3), synthesis was performed in the same manner as described above except that 3-methyl-1-ethyl-5-pyrazolone was used instead of edaravone, then the obtained reaction solution was condensed, and the resultant was subjected to column purification to obtain colorless crystal of BisEp-C1 (H2) having the following physical properties. Note that BisEp-C1 (H2) was water-soluble.

rat neuroid cells B50 [2] = assay: Alleviation of singlet oxygen (Rose Bengal + G-LED) cytotoxicity, Alamar Blue fluorescence; format: cell-based; details: for recovery of the fluorescence intensity (cellular activity): 0, 12.5, 25, 50, or 100 μmol/l, 200 nmol/l RB + G-LED 5 minutes, FIG. 3; for cytoprotective function compared with edaravone: B50 cells, RB + G-LED singlet oxygen
Description: Edaravone, ED2AP and BisEp-C3 were examined whether they had the function of alleviating neuronopathy. Specifically, singlet oxygen was generated by combining Rose Bengal (RB), which is a sensitizer, with green light (G-LED), and the function of alleviating the cytotoxicity of the generated singlet oxygen was examined with the cellular activity being an indicator.
First, rat neuroid cells B50 were cultured in 12-well dishes at 2×10^5 cells/well (medium: RPMI-1640 medium containing 5% FCS) overnight. After the culturing, the medium of each well was replaced with HBSS (1000 μl/well; phenol red free Ca+, Mg+) containing 200 nmol/l RB and edaravone, ED2AP, or BisEp-C3 having a predetermined concentration (0, 12.5, 25, 50, or 100 μmol/l). The dish was then irradiated with G-LED for 5 minutes to generate singlet oxygen. Thereafter, the medium of each well was replaced with 1000 μl of HBSS and Alamar Blue was added. The dish was then allowed to react for about 2 hours in an incubator at 37° C. and 5% CO2. After the reaction, fluorescence intensity (excitation wavelength: λ-560 nm, fluorescence wavelength: λ-595 nm) was measured with a plate reader (infinite200, Tecan Trading AG). In this experimental system, the higher the cellular activity, the more Alamar Blue is taken up and the higher the fluorescence intensity. As a control, fluorescence intensity was measured in the same manner except that sodium azide (Azide, NaN3) was added instead of the compounds so as to achieve a concentration of 4 mmol/l. As a negative control (NC), fluorescence intensity was measured in the same manner except that RB was not added. The relative value of the fluorescence intensity in the sample to which each compound was added was calculated with the fluorescence intensity of the negative control being 100.

rat neuroid cells B50 [3] = assay: Toxicity evaluation, cell viability by Alamar Blue after 24 hours; format: cell-based; details: 12.5, 25, 50, 100, or 200 μmol/l, FIG. 5
Description: Rat neuroid cells B50 were seeded in 12-well plates and then cultured. Edaravone (RC), ED2AP, or BisEp-C3 was added to each well so as to achieve a predetermined concentration (12.5, 25, 50, 100, or 200 μmol/l), and then incubated for 24 hours at 37° C. and 5% CO2. Cell viability in each well after the culture was measured using Alamar Blue.

Row | solubility in water [1] | Compound | recovery of the fluorescence intensity (cellular activity) (rat neuroid cells B50 [2]) | cytoprotective function compared with edaravone (rat neuroid cells B50 [2]) | cytotoxicity (cell viability) (rat neuroid cells B50 [3])
1 | water-soluble | CCN1N=C(C)/C(=C\C=C\c2c(C)nn(CC)c2O)C1=O (racemic) [BisEp-C3, 2,4-dihydro-4-[3-(1-ethyl-5-hydroxy-3-methyl-1H-pyrazol-4-yl)-2-propen-1-ylidene]-2-ethyl-5-methyl-3H-pyrazol-3-one] | recovered in a concentration-dependent manner | higher than that of edaravone | not cytotoxic at any concentration
2 | water-soluble | CC1=NN(c2ccccc2)C(=O)/C1=C/C=C/c1c(C)nn(-c2ccccc2)c1O (racemic) [ED2AP, 2,4-dihydro-4-[3-(5-hydroxy-3-methyl-1-phenyl-1H-pyrazol-4-yl)-2-propen-1-ylidene]-5-methyl-2-phenyl-3H-pyrazol-3-one] | recovered in a concentration-dependent manner | higher than that of edaravone | not cytotoxic at any concentration
